What all share (test): NCI tumour cell line growth inhibition, 48 h
Assay [1] has as its system OVCAR-5.
Assay [2] relates to T47D.
For assay [3], the system named is COLO 205.
The test system of assay [4] is BT-549.
Assay [5] concerns UACC-257.
Assay [6] relates to Hs-578T.
Assay [7] relates to CCRF-CEM.
In assay [8] the test system is SK-OV-3.
For assay [9], the system named is OVCAR-4.
The test system of assay [10] is OVCAR-3.
Assay [11] has as its system SK-MEL-28.
The test system of assay [12] is SK-MEL-5.
In assay [13] the test system is IGROV-1.
Assay [14] concerns LOX IMVI.
Assay [15] has as its system NCI-H23.
The subject of assay [16] is HL-60.
Assay [17] concerns ACHN.
Assay [18] concerns NCI-H226.
Assay [19] has as its system TK-10.
Assay [20] relates to SNB-75.

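Interpolation was linear, between the two tested concentrations surrounding the appropriate level; five concentrations were tested over 48 hours in 96-well plates. Abbreviation: GI50, concentration required for 50% inhibition of growth.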 Calls of active or inactive are those of the source. Cut-off read from the data, not from the text of the source: active = GI50 up to about 1.1 µM and inactive = higher.

For `O=C(Nc1ccccc1F)c1cc2ccc(O)cc2o/c1=N\c1cccc(C(F)(F)F)c1`, the GI50 in assay [1] was 26.5 µM (inactive); in assay [2], 2.59 µM (inactive); in assay [3] it was 18.6 µM (inactive); in assay [4] it was 2.67 µM (inactive); in assay [5], 4.02 µM (inactive); in [6], 1.94 µM (inactive). The GI50 in [7] was 1.92 µM (inactive); in assay [8], 3.78 µM (inactive); in assay [9], 2.63 µM (inactive); in assay [10] it was 3.77 µM (inactive); in assay [11], 3.82 µM (inactive); in [12] it was 1.94 µM (inactive). In addition, the GI50 in assay [13] was 2.08 µM (inactive); in assay [14], 2.69 µM (inactive); in [15] it was 1.76 µM (inactive); in assay [16], 1.66 µM (inactive); in [17], 3.57 µM (inactive).
For the molecule `COC(=O)[C@H](CCSC)NC(=O)c1ccc(CNC(=O)/C=C/c2cccc(Oc3ccccc3)c2)cc1`, the GI50 was > 100 µM (inactive) in assay [1]; > 23.8 µM (inactive) in [18]; > 45.3 µM (inactive) in assay [19]; 0.27 µM (active) in [2]; 21.9 µM (inactive) in assay [3]; > 69.7 µM (inactive) in assay [4]. For the same molecule, the GI50 was 11.5 µM (inactive) in [5]; 59.2 µM (inactive) in assay [6]; 33.1 µM (inactive) in assay [7]; > 100 µM (inactive) in assay [8]; 33.6 µM (inactive) in assay [9]; 23.3 µM (inactive) in assay [10]. Also, the GI50 in [11] is 17.4 µM (inactive); in assay [20], 22.4 µM (inactive); in [12] it was 15.6 µM (inactive); in assay [13], 27.5 µM (inactive); in [14] it was 51.8 µM (inactive); in assay [15], 42 µM (inactive). Moreover, in assay [17], the GI50 is > 74.6 µM (inactive).
For `CCn1c(=O)c2c3ccc(OC(C)=O)cc3[nH]c2c2ccc(OC(C)=O)cc21`, the GI50 in assay [1] was > 100 µM (inactive); in assay [18], 24.8 µM (inactive); in assay [19], 51.5 µM (inactive); in [2] it was 18.5 µM (inactive); in [3] it was 30.9 µM (inactive); in assay [4], 72.3 µM (inactive). Besides, the GI50 in [5] was 42.1 µM (inactive); in assay [6], 34.5 µM (inactive); in assay [7], 15.2 µM (inactive); in [8] it was 44.3 µM (inactive); in [9], 57.4 µM (inactive); in assay [10], 32 µM (inactive). The GI50 in assay [11] is 49.2 µM (inactive); in assay [20], 10.1 µM (inactive); in [12], 30.8 µM (inactive); in assay [13], 53.1 µM (inactive); in assay [15], 40.3 µM (inactive); in assay [17], 31.9 µM (inactive).
Take `CN(CCc1ccc(Cl)c(Cl)c1)[C@H]1CCCC[C@H]1N1CCCC1`: the GI50 in assay [1], in assay [18], in assay [19], in assay [2], in assay [3] and in [4] was > 100 µM (inactive) each time. Besides, the GI50 in assay [5], in assay [6], in assay [8], in assay [9], in assay [10] and in [11] was > 100 µM (inactive) in each case. Moreover, the GI50 in [12], in [13], in assay [14], in [15], in assay [16] and in assay [17] was > 100 µM (inactive) in each case.
Consider `NC1CCCCC1NCCNC1CCCCC1N` (configuration not stated), for which the GI50 is 20.9 µM (inactive) in assay [1]; > 100 µM (inactive) in [18]; > 100 µM (inactive) in [19]; > 100 µM (inactive) in assay [2]; 15.9 µM (inactive) in assay [3]; > 100 µM (inactive) in assay [4]. The GI50 is > 100 µM (inactive) in assay [5]; 44.7 µM (inactive) in [6]; 36.4 µM (inactive) in assay [7]; > 100 µM (inactive) in assay [8]; 47.2 µM (inactive) in assay [9]; > 100 µM (inactive) in assay [10]. Moreover, the GI50 was > 100 µM (inactive) in assay [11]; > 100 µM (inactive) in assay [12]; 75.7 µM (inactive) in assay [13]; 86.5 µM (inactive) in [14]; 29.9 µM (inactive) in [15]; > 100 µM (inactive) in assay [16]. Moreover, the GI50 in assay [17] was > 100 µM (inactive).
As to `COc1ccc(N2C(=O)C3c4[nH]c5ccc(F)cc5c4C4CCC(c5ccccc5)CC4C3C2=O)cc1` (configuration not stated), the GI50 in assay [1] is 18.3 µM (inactive); in assay [18], 54.8 µM (inactive); in assay [19], 21.9 µM (inactive); in assay [2], 39.3 µM (inactive); in assay [3], 31.1 µM (inactive); in [4] it was 17.3 µM (inactive). For the same molecule, the GI50 was 26.7 µM (inactive) in assay [5]; 10.8 µM (inactive) in [6]; 2.26 µM (inactive) in assay [7]; 22.5 µM (inactive) in assay [8]; 12.7 µM (inactive) in assay [9]; 38.3 µM (inactive) in assay [10]. Also, the GI50 in [11] was 13.5 µM (inactive); in [20], 12.5 µM (inactive); in [12] it was 21.6 µM (inactive); in assay [13], 20.1 µM (inactive); in assay [14] it was 36.8 µM (inactive); in [15], 18.8 µM (inactive). Also, in assay [17], the GI50 was 20.3 µM (inactive).
`COc1ccc2[nH]c3c(c2c1)CCc1c(OC)cccc1-3`: the GI50 in assay [1] was > 100 µM (inactive); in assay [18], > 100 µM (inactive); in assay [19], > 100 µM (inactive); in assay [2], 14.5 µM (inactive); in assay [3], > 100 µM (inactive); in assay [4], > 100 µM (inactive). Also, the GI50 in assay [5] was > 100 µM (inactive); in assay [6], 39.7 µM (inactive); in assay [7], 52.2 µM (inactive); in assay [8], > 100 µM (inactive); in [9], 40.3 µM (inactive); in assay [10], > 100 µM (inactive). Moreover, the GI50 in assay [11] is > 100 µM (inactive); in assay [20], 70 µM (inactive); in assay [12] it was > 100 µM (inactive); in assay [13], > 100 µM (inactive); in assay [14], > 100 µM (inactive); in assay [15], > 100 µM (inactive). Further, the GI50 in assay [17] was > 100 µM (inactive).
For `Cc1cc(N(CCC#N)CCC#N)ccc1C(/N=N\c1ccc(C(=O)O)cc1)=N\NC(=O)c1cc(Cl)ccc1O`, the GI50 is > 100 µM (inactive) in assay [1]; 18.7 µM (inactive) in [18]; 40.2 µM (inactive) in [19]; 40.7 µM (inactive) in assay [2]; > 100 µM (inactive) in assay [3]; 45.9 µM (inactive) in [4]. For the same molecule, the GI50 is > 100 µM (inactive) in assay [5]; 19.7 µM (inactive) in assay [6]; 59.8 µM (inactive) in [7]; 28.2 µM (inactive) in assay [8]; 29.2 µM (inactive) in assay [9]; 56.2 µM (inactive) in assay [10]. In addition, the GI50 is 22.6 µM (inactive) in assay [20]; 78.7 µM (inactive) in [12]; 24.7 µM (inactive) in assay [13]; 39.2 µM (inactive) in assay [15]; 31.7 µM (inactive) in [17].
As to `CCOC(=O)NN(C(=O)OCC)C(C(=O)C1=CCCCC1)N(NC(=O)OCC)C(=O)OCC`, the GI50 in assay [1], in assay [18], in assay [19], in [2], in assay [3] and in [4] was > 100 µM (inactive) throughout. Further, the GI50 in assay [5], in assay [6], in assay [8], in assay [9], in assay [10] and in [11] was > 100 µM (inactive) each time. Further, the GI50 in assay [20], in assay [12], in [13], in assay [14], in assay [15] and in assay [17] was > 100 µM (inactive) in each case.
On to `COc1cc2c(cc1C[C@H]1[C@@H]3C[C@H]4c5c(c6ccccc6n5C)C[C@@H]([C@@H]3CO[C@]1(C)OC(C)=O)N4C)c1c(n2C)C2C[C@H]3C(C(C)=O)=COC[C@H]3[C@H](C1)N2C`, for which the GI50 in assay [1] was 4.35 µM (inactive); in assay [18] it was 5.46 µM (inactive); in assay [19] it was 3.62 µM (inactive); in assay [2], 2.2 µM (inactive); in assay [3] it was 3.08 µM (inactive); in assay [4], 3.29 µM (inactive). Also, the GI50 in assay [5] was 4.03 µM (inactive); in assay [6], 2.8 µM (inactive); in assay [7] it was 2.55 µM (inactive); in assay [8], 11.1 µM (inactive); in assay [9], 3.8 µM (inactive); in assay [10], 2.66 µM (inactive). The GI50 is 9.91 µM (inactive) in [11]; 3.54 µM (inactive) in [12]; 7.24 µM (inactive) in assay [13]; > 25 µM (inactive) in assay [14]; 7.06 µM (inactive) in assay [15]; 3.87 µM (inactive) in assay [17].

These data come from ChEMBL document CHEMBL1201862, “PubChem BioAssay data set” (2004).
